Results as given in patent US10800765B2, “Indole derivative used as CRTH2 inhibitor” (CHIA TAI TIANQING PHARMACEUTICAL GROUP CO., LTD., priority 2016, dated 2020).

Each molecule was assayed against CRTH2 receptor (Homo sapiens (Human), UniProt Q9Y5Y4) (assay: PathHunter CHO-K1 CRTH2 β-arrestin antagonist assay (PGD2 agonist)). Settings: PathHunter CHO-K1 CRTH2 β-arrestin cells; 30 min compound pre-incubation, then EC80 PGD2 for 90 min; chemiluminescence.
Format: cell-based
Experimental: PathHunter® CHO-K1 CRTH2 β-arrestin cells (DiscoverX, catalogue number 93-0291C2) grew under standard conditions, and were inoculated into a white-wall 384-well microplate at a density of 5,000 cells/well. 20 μL of Cell Plating Reagent 1 was used in each well. Before the test, the cells were incubated overnight at 37° C./5% CO2. A test compound was serially diluted in DMSO with a dilution factor of 3-fold to give 8 concentrations of the test compound. Shortly before the test, the serially diluted test compound was further diluted with the test buffer to 5 times of the test concentration. 5 μL of the further diluted test compound was added to the cells, and the cells were incubated for 30 min at 37° C. The concentration of the solvent was 1%. 5 μL of 6×EC80 agonist (PGD2) buffer was added to the cells, and the cells were incubated for 90 min at 37° C. Measured signals were generated by one-time addition of 15 μL (50% v/v) of PathHunter detection mixture reagent and subsequent one-hour incubation. The microplate was read through the chemiluminescent signals of PerkinElmer Envision™ reader. Biological activity of the test compound was analyzed by CBIS data analysis suite (ChemInnovation, CA), and was denoted as IC50 value.

CRTH2 receptor, sequence (Q9Y5Y4 whole entry): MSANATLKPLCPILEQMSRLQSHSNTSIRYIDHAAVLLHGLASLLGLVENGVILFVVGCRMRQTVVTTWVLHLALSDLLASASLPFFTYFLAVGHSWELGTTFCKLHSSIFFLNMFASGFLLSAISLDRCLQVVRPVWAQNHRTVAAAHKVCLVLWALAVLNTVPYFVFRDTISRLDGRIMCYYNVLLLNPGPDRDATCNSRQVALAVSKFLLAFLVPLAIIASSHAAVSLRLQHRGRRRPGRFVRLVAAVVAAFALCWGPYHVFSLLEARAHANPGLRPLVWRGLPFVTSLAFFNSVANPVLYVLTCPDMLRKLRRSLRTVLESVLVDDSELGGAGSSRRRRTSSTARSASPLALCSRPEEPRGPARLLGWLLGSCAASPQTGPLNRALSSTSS

`Cc1c(C2CS(=O)(=O)c3ccccc32)c2cc(F)ccc2n1CC(=O)O` (stereo not drawn) [Example 2] and `Cc1c(C2=CCCS(=O)(=O)c3ccccc32)c2cc(F)ccc2n1CC(=O)O` [Example 9] fall in the same range of IC50: 100 to 1000 nM for the first, 100 to 1000 nM for the second.

`Cc1c(C2=CS(=O)(=O)c3ccccc32)c2ccc(F)cc2n1CC(=O)O` [Example 3] and `Cc1c(C2=CS(=O)(=O)c3ccccc32)c2cc(Cl)ccc2n1CC(=O)O` [Example 5] fall in the same range of IC50: 100 to 1000 nM for the first, 100 to 1000 nM for the second.

`Cc1c(C2=CS(=O)(=O)c3ccncc32)c2cc(F)ccc2n1CC(=O)O` [Example 10] and `Cc1c(C2=CS(=O)(=O)c3ccc(Cl)cc32)c2cc(F)ccc2n1CC(=O)O` [Example 33] fall in the same range of IC50: 100 to 1000 nM for the first, 100 to 1000 nM for the second.

`Cc1c(C2=CS(=O)(=O)c3ncccc32)c2cc(F)ccc2n1CC(=O)O` [Example 11] and `Cc1c(C2=CS(=O)(=O)c3ccc(C(F)(F)F)cc32)c2cc(F)ccc2n1CC(=O)O` [Example 12] fall in the same range of IC50: 100 to 1000 nM for the first, 100 to 1000 nM for the second.

`Cc1ccc2c(c1)c(C1=CS(=O)(=O)c3ccc(C(F)(F)F)cc31)c(C)n2CC(=O)O` [Example 15] and `Cc1ccc2c(c1)c(C1=CS(=O)(=O)c3cc(C(F)(F)F)ccc31)c(C)n2CC(=O)O` [Example 19] fall in the same range of IC50: 100 to 1000 nM for the first, 100 to 1000 nM for the second.

`Cc1c(C2=CS(=O)(=O)c3ccc(C(F)(F)F)cc32)c2ccc(F)cc2n1CC(=O)O` [Example 16] and `Cc1c(C2=CS(=O)(=O)c3cc(C(F)(F)F)ccc32)c2ccc(F)cc2n1CC(=O)O` [Example 20] fall in the same range of IC50: 100 to 1000 nM for the first, 100 to 1000 nM for the second.

`Cc1c(C2=CS(=O)(=O)c3cc(C(F)(F)F)ccc32)c2cc(Cl)ccc2n1CC(=O)O` [Example 17] and `Cc1c(C2=CS(=O)(=O)c3cc(C(F)(F)F)ccc32)c2ccc(Cl)cc2n1CC(=O)O` [Example 18] fall in the same range of IC50: 100 to 1000 nM for the first, 100 to 1000 nM for the second.

First: Cc1c(C2=CS(=O)(=O)c3cc(-c4ccncc4)ccc32)c2cc(F)ccc2n1CC(=O)O [Example 21]
Second: Cc1c(C2=CS(=O)(=O)c3cc(S(C)(=O)=O)ccc32)c2cc(F)ccc2n1CC(=O)O [Example 31]
The IC50 of the first is higher: 100 to 1000 nM for the first, less than 100 nM for the second.

`Cc1c(C2=CS(=O)(=O)c3ccc(Cl)cc32)c2cc(Cl)ccc2n1CC(=O)O` [Example 34] and `Cc1c(C2=CS(=O)(=O)c3ccc(Cl)cc32)c2ccc(C(F)(F)F)cc2n1CC(=O)O` [Example 38] fall in the same range of IC50: 100 to 1000 nM for the first, 100 to 1000 nM for the second.

First: Cc1c(Cc2ccc3c(c2)CCS3(=O)=O)c2cc(F)ccc2n1CC(=O)O [Example 43]
Second: Cc1c(Cc2ccc3c(c2)S(=O)(=O)CC3)c2cc(F)ccc2n1CC(=O)O [Example 74]
The IC50 of the first is lower: less than 100 nM for the first, 100 to 1000 nM for the second.

`Cc1c(Cc2ccc3c(c2)C=CS3(=O)=O)c2cc(F)ccc2n1CC(=O)O` [Example 44] and `Cc1c(Cc2ccc3c(c2)N(C)S(=O)(=O)C=C3)c2cc(F)ccc2n1CC(=O)O` [Example 48] fall in the same range of IC50: 100 to 1000 nM for the first, 100 to 1000 nM for the second.

`Cc1c(C(C)C2=CS(=O)(=O)c3ccccc32)c2cc(F)ccc2n1CC(=O)O` (stereo not drawn) [Example 45] and `Cc1c(Cc2cccc3c2CCS3(=O)=O)c2cc(F)ccc2n1CC(=O)O` [Example 49] fall in the same range of IC50: 100 to 1000 nM for the first, 100 to 1000 nM for the second.

First: Cc1c(Cc2ccc3c(c2)C(F)C(F)(F)S3(=O)=O)c2cc(F)ccc2n1CC(=O)O (stereo not drawn) [Example 46]
Second: Cc1c(Cc2ccc3c(c2)N=CNS3(=O)=O)c2cc(F)ccc2n1CC(=O)O [Example 66]
The IC50 of the first is higher: 100 to 1000 nM for the first, less than 100 nM for the second.

`Cc1c(Cc2ccc3c(c2)CCS3(=O)=O)c2ccccc2n1CC(=O)O` [Example 50] and `Cc1c(Cc2ccc3c(c2)CCS3(=O)=O)c2cc(Cl)ccc2n1CC(=O)O` [Example 51] fall in the same range of IC50: 100 to 1000 nM for the first, 100 to 1000 nM for the second.

`Cc1ccc2c(c1)c(Cc1ccc3c(c1)CCS3(=O)=O)c(C)n2CC(=O)O` [Example 52] and `Cc1c(Cc2ccc3c(c2)CCS3(=O)=O)c2cc(Br)ccc2n1CC(=O)O` [Example 55] fall in the same range of IC50: 100 to 1000 nM for the first, 100 to 1000 nM for the second.

First: Cc1c(Cc2ccc3c(c2)CCS3(=O)=O)c2ccc(Cl)cc2n1CC(=O)O [Example 54]
Second: Cc1c(Cc2ccc3c(c2)CCS3(=O)=O)c2cc([N+](=O)[O-])ccc2n1CC(=O)O [Example 57]
The IC50 of the first is higher: greater than 1000 nM for the first, 100 to 1000 nM for the second. The second is the more potent here.

First: CC(=O)Nc1ccc2c(c1)c(Cc1ccc3c(c1)CCS3(=O)=O)c(C)n2CC(=O)O [Example 59]
Second: Cc1c(Cc2cccc3c2S(=O)(=O)CC3)c2cc(F)ccc2n1CC(=O)O [Example 75]
The IC50 of the first is higher: greater than 1000 nM for the first, 100 to 1000 nM for the second.

`O=C(O)Cn1cc(Cc2ccc3c(c2)CCS3(=O)=O)c2cc(F)ccc21` [Example 60] and `Cc1c(Cc2cc3c(cc2C(F)(F)F)S(=O)(=O)CC3)c2cc(F)ccc2n1CC(=O)O` [Example 61] fall in the same range of IC50: 100 to 1000 nM for the first, 100 to 1000 nM for the second.

`Cc1c(Cc2cc3c(cc2C(F)(F)F)S(=O)(=O)CCC3(F)F)c2cc(F)ccc2n1CC(=O)O` [Example 63] and `Cc1c(Cc2cc3c(cc2C(F)(F)F)S(=O)(=O)N(C)CC3(F)F)c2cc(F)ccc2n1CC(=O)O` [Example 64] fall in the same range of IC50: 100 to 1000 nM for the first, 100 to 1000 nM for the second.

First: Cc1c(Cc2ccc3c(n2)C(F)(F)CCS3(=O)=O)c2cc(F)ccc2n1CC(=O)O [Example 65]
Second: Cc1c(Cc2cc3c(cc2F)S(=O)(=O)N(C)CC3(F)F)c2cc(F)ccc2n1CC(=O)O [Example 78]
The IC50 of the first is lower: less than 100 nM for the first, 100 to 1000 nM for the second.

First: Cc1c(Cc2ccc3c(c2)N(C)CN(C2CC2)S3(=O)=O)c2cc(F)ccc2n1CC(=O)O [Example 70]
Second: Cc1c(Cc2ccc3c(c2)C(F)(F)CCS3(=O)=O)c2ncccc2n1CC(=O)O [Example 80]
The IC50 of the first is lower: less than 100 nM for the first, 100 to 1000 nM for the second.
